Source: US3989730A, “Bone-seeking technetium-99m complex” (priority 1973, dated 1976)
Read-outs that look alike come from different tables or passages of the source.

Details: for Blood, % Dose in Whole Organ / Blood, % dose / 1 % body weight / Bone Ave, % Dose/1 % Body weight / Femur, % dose / 1 % body weight / Kidneys, % Dose in Whole Organ / Kidneys, % dose / 1 % body weight / Liver, % Dose in Whole Organ / Liver, % dose / 1 % body weight / Marrow, % Dose in Whole Organ / Marrow, % dose / 1 % body weight / Muscle, % Dose in Whole Organ / Muscle, % dose / 1 % body weight / Pelvis, % dose / 1 % body weight / Spine, % dose / 1 % body weight / Tibia, % dose / 1 % body weight / Urine, % Dose / W. Femur, % Dose in Whole Organ / W. Tibia, % Dose in Whole Organ: 2 Hrs; for Ratio 99mTc/85Sr, Ave Bone / Ratio 99mTc/85Sr, Blood / Ratio 99mTc/85Sr, Femur / Ratio 99mTc/85Sr, Kidneys / Ratio 99mTc/85Sr, Liver / Ratio 99mTc/85Sr, Marrow / Ratio 99mTc/85Sr, Muscle / Ratio 99mTc/85Sr, Pelvis / Ratio 99mTc/85Sr, Spine / Ratio 99mTc/85Sr, Tibia: 2 hours

For “99m technetium-tin-1-amino-ethane-1,1-diphosphonate [99mTc-Sn-AEDP]”, the “Blood, % Dose in Whole Organ” value (AEDP 0.01 mg/kg) was 1.18 % Dose, the “Blood, % dose / 1 % body weight” value (AEDP 0.01 mg/kg) was 0.168 % Dose/1 % Body weight and the “Bone Ave, % Dose/1 % Body weight” value (AEDP 0.01 mg/kg) was 7.60 % Dose/1 % Body weight. For the same substance, the “Femur, % dose / 1 % body weight” value (AEDP 0.01 mg/kg) was 7.54 % Dose/1 % Body weight, the “Kidneys, % Dose in Whole Organ” value (AEDP 0.01 mg/kg) was 1.59 % Dose and the “Kidneys, % dose / 1 % body weight” value (AEDP 0.01 mg/kg) was 2.72 % Dose/1 % Body weight. The “Liver, % Dose in Whole Organ” value (AEDP 0.01 mg/kg) was 1.69 % Dose, the “Liver, % dose / 1 % body weight” value (AEDP 0.01 mg/kg) was 0.617 % Dose/1 % Body weight and the “Marrow, % Dose in Whole Organ” value (AEDP 0.01 mg/kg) was 0.657 % Dose. For the same substance, the “Marrow, % dose / 1 % body weight” value (AEDP 0.01 mg/kg) was 0.300 % Dose/1 % Body weight, the “Muscle, % Dose in Whole Organ” value (AEDP 0.01 mg/kg) was 0.988 % Dose and the “Muscle, % dose / 1 % body weight” value (AEDP 0.01 mg/kg) was 0.037 % Dose/1 % Body weight. The “Pelvis, % dose / 1 % body weight” value (AEDP 0.01 mg/kg) was 8.53 % Dose/1 % Body weight, the “Spine, % dose / 1 % body weight” value (AEDP 0.01 mg/kg) was 6.20 % Dose/1 % Body weight and the “Tibia, % dose / 1 % body weight” value (AEDP 0.01 mg/kg) was 8.13 % Dose/1 % Body weight. The “Urine, % Dose” value (AEDP 0.01 mg/kg) was 48.39 % Dose, the “W. Femur, % Dose in Whole Organ” value (AEDP 0.01 mg/kg) was 2.34 % Dose and the “W. Tibia, % Dose in Whole Organ” value (AEDP 0.01 mg/kg) was 1.96 % Dose. The “Blood, % Dose in Whole Organ” value (AEDP 0.05 mg/kg) was 1.01 % Dose, the “Blood, % dose / 1 % body weight” value (AEDP 0.05 mg/kg) was 0.144 % Dose/1 % Body weight and the “Bone Ave, % Dose/1 % Body weight” value (AEDP 0.05 mg/kg) was 8.39 % Dose/1 % Body weight. For the same substance, the “Femur, % dose / 1 % body weight” value (AEDP 0.05 mg/kg) was 8.63 % Dose/1 % Body weight, the “Kidneys, % Dose in Whole Organ” value (AEDP 0.05 mg/kg) was 1.13 % Dose and the “Kidneys, % dose / 1 % body weight” value (AEDP 0.05 mg/kg) was 1.83 % Dose/1 % Body weight. For the same substance, the “Liver, % Dose in Whole Organ” value (AEDP 0.05 mg/kg) was 0.806 % Dose, the “Liver, % dose / 1 % body weight” value (AEDP 0.05 mg/kg) was 0.176 % Dose/1 % Body weight and the “Marrow, % Dose in Whole Organ” value (AEDP 0.05 mg/kg) was 0.549 % Dose. For the same substance, the “Marrow, % dose / 1 % body weight” value (AEDP 0.05 mg/kg) was 0.250 % Dose/1 % Body weight, the “Muscle, % Dose in Whole Organ” value (AEDP 0.05 mg/kg) was 1.20 % Dose and the “Muscle, % dose / 1 % body weight” value (AEDP 0.05 mg/kg) was 0.028 % Dose/1 % Body weight. The “Pelvis, % dose / 1 % body weight” value (AEDP 0.05 mg/kg) was 7.82 % Dose/1 % Body weight, the “Spine, % dose / 1 % body weight” value (AEDP 0.05 mg/kg) was 7.80 % Dose/1 % Body weight and the “Tibia, % dose / 1 % body weight” value (AEDP 0.05 mg/kg) was 9.30 % Dose/1 % Body weight. The “Urine, % Dose” value (AEDP 0.05 mg/kg) was 44.21 % Dose, the “W. Femur, % Dose in Whole Organ” value (AEDP 0.05 mg/kg) was 2.41 % Dose and the “W. Tibia, % Dose in Whole Organ” value (AEDP 0.05 mg/kg) was 2.14 % Dose. The “Blood, % Dose in Whole Organ” value (AEDP 0.1 mg/kg) was 0.96 % Dose, the “Blood, % dose / 1 % body weight” value (AEDP 0.1 mg/kg) was 0.137 % Dose/1 % Body weight and the “Bone Ave, % Dose/1 % Body weight” value (AEDP 0.1 mg/kg) was 7.51 % Dose/1 % Body weight. For the same substance, the “Femur, % dose / 1 % body weight” value (AEDP 0.1 mg/kg) was 7.93 % Dose/1 % Body weight, the “Kidneys, % Dose in Whole Organ” value (AEDP 0.1 mg/kg) was 0.913 % Dose and the “Kidneys, % dose / 1 % body weight” value (AEDP 0.1 mg/kg) was 1.28 % Dose/1 % Body weight. For the same substance, the “Liver, % Dose in Whole Organ” value (AEDP 0.1 mg/kg) was 0.309 % Dose, the “Liver, % dose / 1 % body weight” value (AEDP 0.1 mg/kg) was 0.083 % Dose/1 % Body weight and the “Marrow, % Dose in Whole Organ” value (AEDP 0.1 mg/kg) was 0.211 % Dose. The “Marrow, % dose / 1 % body weight” value (AEDP 0.1 mg/kg) was 0.096 % Dose/1 % Body weight, the “Muscle, % Dose in Whole Organ” value (AEDP 0.1 mg/kg) was 1.46 % Dose and the “Muscle, % dose / 1 % body weight” value (AEDP 0.1 mg/kg) was 0.034 % Dose/1 % Body weight. The “Pelvis, % dose / 1 % body weight” value (AEDP 0.1 mg/kg) was 6.24 % Dose/1 % Body weight, the “Spine, % dose / 1 % body weight” value (AEDP 0.1 mg/kg) was 7.36 % Dose/1 % Body weight and the “Tibia, % dose / 1 % body weight” value (AEDP 0.1 mg/kg) was 8.50 % Dose/1 % Body weight. The “Urine, % Dose” value (AEDP 0.1 mg/kg) was 38.8 % Dose, the “W. Femur, % Dose in Whole Organ” value (AEDP 0.1 mg/kg) was 2.38 % Dose and the “W. Tibia, % Dose in Whole Organ” value (AEDP 0.1 mg/kg) was 2.18 % Dose. The “Blood, % Dose in Whole Organ” value (AEDP 0.5 mg/kg) was 1.38 % Dose, the “Blood, % dose / 1 % body weight” value (AEDP 0.5 mg/kg) was 0.197 % Dose/1 % Body weight and the “Bone Ave, % Dose/1 % Body weight” value (AEDP 0.5 mg/kg) was 6.96 % Dose/1 % Body weight. The “Femur, % dose / 1 % body weight” value (AEDP 0.5 mg/kg) was 6.59 % Dose/1 % Body weight, the “Kidneys, % Dose in Whole Organ” value (AEDP 0.5 mg/kg) was 1.11 % Dose and the “Kidneys, % dose / 1 % body weight” value (AEDP 0.5 mg/kg) was 2.11 % Dose/1 % Body weight. For the same substance, the “Liver, % Dose in Whole Organ” value (AEDP 0.5 mg/kg) was 0.216 % Dose, the “Liver, % dose / 1 % body weight” value (AEDP 0.5 mg/kg) was 0.079 % Dose/1 % Body weight and the “Marrow, % Dose in Whole Organ” value (AEDP 0.5 mg/kg) was 0.23 % Dose. The “Marrow, % dose / 1 % body weight” value (AEDP 0.5 mg/kg) was 0.104 % Dose/1 % Body weight, the “Muscle, % Dose in Whole Organ” value (AEDP 0.5 mg/kg) was 0.883 % Dose and the “Muscle, % dose / 1 % body weight” value (AEDP 0.5 mg/kg) was 0.021 % Dose/1 % Body weight. For the same substance, the “Pelvis, % dose / 1 % body weight” value (AEDP 0.5 mg/kg) was 7.93 % Dose/1 % Body weight, the “Spine, % dose / 1 % body weight” value (AEDP 0.5 mg/kg) was 6.05 % Dose/1 % Body weight and the “Tibia, % dose / 1 % body weight” value (AEDP 0.5 mg/kg) was 7.27 % Dose/1 % Body weight. The “Urine, % Dose” value (AEDP 0.5 mg/kg) was 48.85 % Dose, the “W. Femur, % Dose in Whole Organ” value (AEDP 0.5 mg/kg) was 1.74 % Dose and the “W. Tibia, % Dose in Whole Organ” value (AEDP 0.5 mg/kg) was 1.55 % Dose. The “Ratio 99mTc/85Sr, Ave Bone” value (0.01 mg/kg) was 0.735, the “Ratio 99mTc/85Sr, Blood” value (0.01 mg/kg) was 0.406 and the “Ratio 99mTc/85Sr, Femur” value (0.01 mg/kg) was 0.720. For the same substance, the “Ratio 99mTc/85Sr, Kidneys” value (0.01 mg/kg) was 4.99, the “Ratio 99mTc/85Sr, Liver” value (0.01 mg/kg) was 3.00 and the “Ratio 99mTc/85Sr, Marrow” value (0.01 mg/kg) was 1.27. For the same substance, the “Ratio 99mTc/85Sr, Muscle” value (0.01 mg/kg) was 0.338, the “Ratio 99mTc/85Sr, Pelvis” value (0.01 mg/kg) was 0.794 and the “Ratio 99mTc/85Sr, Spine” value (0.01 mg/kg) was 0.689. For the same substance, the “Ratio 99mTc/85Sr, Tibia” value (0.01 mg/kg) was 0.710, the “Ratio 99mTc/85Sr, Ave Bone” value (0.05 mg/kg) was 0.683 and the “Ratio 99mTc/85Sr, Blood” value (0.05 mg/kg) was 0.409. The “Ratio 99mTc/85Sr, Femur” value (0.05 mg/kg) was 0.687, the “Ratio 99mTc/85Sr, Kidneys” value (0.05 mg/kg) was 3.30 and the “Ratio 99mTc/85Sr, Liver” value (0.05 mg/kg) was 1.32. For the same substance, the “Ratio 99mTc/85Sr, Marrow” value (0.05 mg/kg) was 1.18, the “Ratio 99mTc/85Sr, Muscle” value (0.05 mg/kg) was 0.236 and the “Ratio 99mTc/85Sr, Pelvis” value (0.05 mg/kg) was 0.684. The “Ratio 99mTc/85Sr, Spine” value (0.05 mg/kg) was 0.675, the “Ratio 99mTc/85Sr, Tibia” value (0.05 mg/kg) was 0.681 and the “Ratio 99mTc/85Sr, Ave Bone” value (0.1 mg/kg) was 0.716. The “Ratio 99mTc/85Sr, Blood” value (0.1 mg/kg) was 0.409, the “Ratio 99mTc/85Sr, Femur” value (0.1 mg/kg) was 0.714 and the “Ratio 99mTc/85Sr, Kidneys” value (0.1 mg/kg) was 2.94. For the same substance, the “Ratio 99mTc/85Sr, Liver” value (0.1 mg/kg) was 0.490, the “Ratio 99mTc/85Sr, Marrow” value (0.1 mg/kg) was 0.621 and the “Ratio 99mTc/85Sr, Muscle” value (0.1 mg/kg) was 0.205. For the same substance, the “Ratio 99mTc/85Sr, Pelvis” value (0.1 mg/kg) was 0.725, the “Ratio 99mTc/85Sr, Spine” value (0.1 mg/kg) was 0.705 and the “Ratio 99mTc/85Sr, Tibia” value (0.1 mg/kg) was 0.721. For the same substance, the “Ratio 99mTc/85Sr, Ave Bone” value (0.5 mg/kg) was 0.644, the “Ratio 99mTc/85Sr, Blood” value (0.5 mg/kg) was 0.280 and the “Ratio 99mTc/85Sr, Femur” value (0.5 mg/kg) was 0.628. For the same substance, the “Ratio 99mTc/85Sr, Kidneys” value (0.5 mg/kg) was 2.47, the “Ratio 99mTc/85Sr, Liver” value (0.5 mg/kg) was 0.459 and the “Ratio 99mTc/85Sr, Marrow” value (0.5 mg/kg) was 0.500. The “Ratio 99mTc/85Sr, Muscle” value (0.5 mg/kg) was 0.140, the “Ratio 99mTc/85Sr, Pelvis” value (0.5 mg/kg) was 0.692 and the “Ratio 99mTc/85Sr, Spine” value (0.5 mg/kg) was 0.614. For the same substance, the “Ratio 99mTc/85Sr, Tibia” value (0.5 mg/kg) was 0.632.
